Measured values from patent US9938281B2 (Merck Sharp & Dohme Corp., priority 2012, dated 2018).

Experiments:
PI3K-delta = biological target: T1, PI3K-delta (Homo sapiens, UniProt O00329); experiment: HTRF PI3K biochemical assay, delta isoform; conditions: form screened (neutral or TFA salt) given, read-out: PI3Kdelta IC50
T1 construct: purchased Upstate; Millipore 14-604

PI3K-alpha = biological target: T2, PI3K-alpha (Homo sapiens, UniProt P42336); experiment: HTRF PI3K biochemical assay, alpha isoform; conditions: ratio PI3K-alpha IC50 value / PI3K-delta IC50 value
T2 construct: purchased Upstate; Millipore 14-602
T2 sequence (P42336 whole entry, canonical isoform): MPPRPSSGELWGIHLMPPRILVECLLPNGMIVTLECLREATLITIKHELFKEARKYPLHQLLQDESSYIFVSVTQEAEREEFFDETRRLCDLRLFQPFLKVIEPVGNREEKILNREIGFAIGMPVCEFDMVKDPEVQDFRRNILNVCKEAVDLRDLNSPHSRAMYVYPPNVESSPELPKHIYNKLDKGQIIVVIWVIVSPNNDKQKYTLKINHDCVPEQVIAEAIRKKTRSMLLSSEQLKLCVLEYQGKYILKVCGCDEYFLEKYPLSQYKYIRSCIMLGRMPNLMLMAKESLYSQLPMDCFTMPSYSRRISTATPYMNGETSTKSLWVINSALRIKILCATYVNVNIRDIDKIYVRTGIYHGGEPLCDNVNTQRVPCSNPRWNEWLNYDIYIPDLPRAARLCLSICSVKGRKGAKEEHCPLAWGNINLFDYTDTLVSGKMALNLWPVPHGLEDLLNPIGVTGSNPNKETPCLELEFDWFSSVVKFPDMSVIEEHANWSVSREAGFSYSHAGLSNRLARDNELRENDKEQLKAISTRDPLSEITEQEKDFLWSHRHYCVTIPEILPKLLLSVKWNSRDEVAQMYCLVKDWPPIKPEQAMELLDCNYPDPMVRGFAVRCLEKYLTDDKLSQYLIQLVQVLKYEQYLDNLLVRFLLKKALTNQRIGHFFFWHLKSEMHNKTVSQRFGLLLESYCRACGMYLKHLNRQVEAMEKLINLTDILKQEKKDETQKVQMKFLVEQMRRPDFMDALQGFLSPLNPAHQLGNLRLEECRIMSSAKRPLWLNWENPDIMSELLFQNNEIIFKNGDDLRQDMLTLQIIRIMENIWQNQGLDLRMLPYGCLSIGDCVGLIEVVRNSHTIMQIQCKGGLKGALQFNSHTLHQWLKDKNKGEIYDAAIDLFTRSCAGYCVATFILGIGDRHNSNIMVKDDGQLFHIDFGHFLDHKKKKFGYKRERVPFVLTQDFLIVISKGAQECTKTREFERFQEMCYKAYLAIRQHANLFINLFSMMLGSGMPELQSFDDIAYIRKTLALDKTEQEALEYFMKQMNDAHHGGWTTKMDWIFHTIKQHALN
T2 sequence (P27986 whole entry partner, canonical isoform): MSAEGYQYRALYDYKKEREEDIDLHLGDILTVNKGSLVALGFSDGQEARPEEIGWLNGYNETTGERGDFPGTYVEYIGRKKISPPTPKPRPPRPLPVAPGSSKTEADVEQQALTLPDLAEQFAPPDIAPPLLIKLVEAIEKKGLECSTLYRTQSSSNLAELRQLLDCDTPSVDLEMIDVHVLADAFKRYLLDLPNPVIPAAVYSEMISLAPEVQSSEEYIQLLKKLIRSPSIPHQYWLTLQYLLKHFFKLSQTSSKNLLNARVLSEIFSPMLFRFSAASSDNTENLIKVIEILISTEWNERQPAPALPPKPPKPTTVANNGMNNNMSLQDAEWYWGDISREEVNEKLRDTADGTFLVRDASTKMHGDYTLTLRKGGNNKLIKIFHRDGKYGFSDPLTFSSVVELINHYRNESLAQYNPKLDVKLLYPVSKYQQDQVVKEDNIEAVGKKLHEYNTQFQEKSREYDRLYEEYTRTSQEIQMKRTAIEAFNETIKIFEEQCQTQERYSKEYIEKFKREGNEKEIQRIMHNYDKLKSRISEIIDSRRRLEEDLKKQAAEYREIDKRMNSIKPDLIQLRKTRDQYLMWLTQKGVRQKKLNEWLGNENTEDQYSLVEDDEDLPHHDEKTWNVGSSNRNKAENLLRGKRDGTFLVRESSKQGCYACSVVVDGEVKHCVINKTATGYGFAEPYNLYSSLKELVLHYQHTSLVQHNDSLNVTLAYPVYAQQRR
Excerpt: The PI3-Kinase biochemical assays were developed to measure the intrinsic potency and compound dependent inhibition of the alpha, beta, delta, and gamma PI3K isoform enzymes. This assay was developed and further optimized from a kit produced by Upstate (Millipore catalog #33-047) and has been configured for HTS and SAR screening. Briefly, this procedure exploits the exquisite specificity and high affinity binding of enzyme reaction substrate phosphatidyl(3,4,5)triphosphate (PIP3) to the GRP1 pleckstrin homology (PH) domain to generate the signal. In the absence of PIP3, an HTRF (Homogeneous Time-Resolved Fluorescence energy transfer) complex is formed consisting of europium (Eu)-labeled anti-GST, GSTtagged GRP1-PH domain, biotin-PIP3 and streptavidin conjugated APC. The native PIP3 produced by PI3-Kinase activity disrupts in a competitive manner the biotin-PIP3 from the PH domain, resulting in the loss of energy transfer (HTRF complex) and a decrease in the signal. The format of this assay is the same for all 4 isoforms of PI3K; the differences lie in the concentration of enzyme used to achieve robust assay window. The alpha, beta, and delta assays are run at 0.5, 1, and 0.3 nM enzymes and the gamma assay is run at 5 nM enzyme. The ATP concentration is 100 uM in the alpha, beta, and delta assays and 50 uM ATP in the gamma assay. All reactions are run at 5 uM PIP2.
Compounds are serially diluted (3-fold in 100% DMSO) across a 384-well polypropylene source plated from column 3 to column 12 and column 13 to column 22, to yield 10 concentration dose response for each test compound. Columns 1, 2, 23 and 24 contain either only DMSO or pharmacological known control inhibitor.
The PI3-Kinase biochemical assay was optimized using the HTRF kit provided by Upstate (Millipore). The assay kit contains six reagents: 1) 4× Reaction Buffer; 2) native PIP2 (substrate); 3) Stop (EDTA); 4) Detection Mix A (Streptavidin-APC); 5) Detection Mix B (Eu-labeled Anti-GST plus GST-tagged PH-domain); 6) Detection Mix C.
PI3Kinase Reaction Buffer is prepared by dilution the stock 1:4 with de-ionized water. […] Enzyme addition and compound pre-incubation are initiated by the addition of 1.25 ul of PI3K (at twice its final concentration) in the 1× reaction buffer to all wells using a BioRaptor. Plates are incubated at room temperature for 15 minutes. Reactions are initiated by addition of 1.25 ul of 2× substrate solution (PIP2 and ATP in 1× reaction buffer) using BioRaptor. Plates are incubated in humidified chamber at room temperature for one hour. Reactions are quenched by addition of 0.625 uL of stop solution to all wells using the BioRaptor. The quenched reactions are then processed to detect product formation by adding 0.625 uL of Detection Solution to all wells using the BioRaptor (Detection mix C, Detection Mix A, and Detection Mix B combined together in an 18:1:1 ratio prepared 2 hours prior to use).
The loss of the HTRF signal is due to the displacement of biotinylated-PIP3 from the PH domain by the PI3K-dependent conversion of PIP2 to PIP3. This loss of signal is nonlinear with respect to both increasing product and time. This non-linear detection will impact accuracy of IC50 calculations; therefore, there is a need for a correction factor to obtain more accurate IC50 values. This correction is derived from a PIP3 standard curve run in a separate assay plate. All data were calculated using the ratio of acceptor (APC) to donor (Europium) fluorescence in each well of the assay plate. […] An IC50 was then calculated fitting the % inhibition data to the equation: % inhibition=min+(Max−min)/1+([inhibitor]/IC50)^n) where min is the % inhibition with inhibitor, max is the signal in DMSO control, and n is the Hill slope.
The determination of relative selectivity for a given compound is defined as the relative ratio of the (PI3K-alphalC50 value/PI3K-delta IC50 value).

T1 sequence (O00329 whole entry, canonical isoform): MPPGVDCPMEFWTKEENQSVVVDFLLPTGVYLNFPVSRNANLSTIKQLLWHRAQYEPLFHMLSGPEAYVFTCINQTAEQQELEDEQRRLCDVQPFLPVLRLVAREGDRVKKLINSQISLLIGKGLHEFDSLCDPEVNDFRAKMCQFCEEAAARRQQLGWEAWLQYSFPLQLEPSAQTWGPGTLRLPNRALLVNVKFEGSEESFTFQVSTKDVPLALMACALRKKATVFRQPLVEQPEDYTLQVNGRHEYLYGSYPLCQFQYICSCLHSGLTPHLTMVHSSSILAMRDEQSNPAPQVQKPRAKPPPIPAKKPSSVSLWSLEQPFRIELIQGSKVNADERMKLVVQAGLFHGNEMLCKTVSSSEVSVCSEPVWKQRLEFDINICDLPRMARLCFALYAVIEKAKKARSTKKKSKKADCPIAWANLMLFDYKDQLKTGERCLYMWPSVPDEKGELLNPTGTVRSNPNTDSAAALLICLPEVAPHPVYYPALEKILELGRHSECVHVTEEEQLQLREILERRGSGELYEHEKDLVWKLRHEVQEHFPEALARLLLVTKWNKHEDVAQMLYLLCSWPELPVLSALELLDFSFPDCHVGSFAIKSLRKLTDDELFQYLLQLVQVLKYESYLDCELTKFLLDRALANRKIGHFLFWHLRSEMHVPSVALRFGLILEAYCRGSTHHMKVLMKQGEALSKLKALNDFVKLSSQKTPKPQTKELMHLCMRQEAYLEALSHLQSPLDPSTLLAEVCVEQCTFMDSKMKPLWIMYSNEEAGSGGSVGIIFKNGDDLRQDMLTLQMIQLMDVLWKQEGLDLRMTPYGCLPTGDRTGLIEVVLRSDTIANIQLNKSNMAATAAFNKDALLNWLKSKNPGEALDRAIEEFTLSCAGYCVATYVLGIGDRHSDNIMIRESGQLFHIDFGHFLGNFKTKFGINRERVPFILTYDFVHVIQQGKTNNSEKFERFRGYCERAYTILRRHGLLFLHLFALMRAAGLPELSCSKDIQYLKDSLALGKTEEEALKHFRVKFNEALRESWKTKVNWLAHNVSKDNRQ
T1 sequence (P27986 whole entry partner, canonical isoform): as the sequence (P27986 whole entry partner, canonical isoform) above

| Structure (SMILES) | IC50 (PI3K-delta) [nM] | Selectivity versus PI3Kalpha (PI3K-alpha) |
| --- | --- | --- |
| CCn1c(-c2cnc(C)nc2)nc2c(N[C@H]3CCN(C(=O)C4(COC)CC4)C3)ncnc21 [Compound 2-61, 9-ethyl-N-[(3S)-1-{[1-(methoxymethyl)cyclopropyl]carbonyl}pyrrolidin-3-yl]-8-(2-methylpyrimidin-5-yl)-9H-purin-6-amine] | 23 | >10 |
| CCn1c(C(=O)N2CCCC2)nc2c(N[C@H]3CCN(C(=O)C4CC4)C3)ncnc21 [Compound 6-8, N-[(3S)-1-(cyclopropylcarbonyl)pyrrolidin-3-yl]-9-ethyl-8-(pyrrolidin-1-ylcarbonyl)-9H-purin-6-amine] | 72 | >10 |
| CCn1c(-c2cnc(C)nc2)nc2c(N[C@H]3CCN(C(=O)NC(C)(C)C(=O)OC)C3)ncnc21 [Compound 12-24, methyl N-{[(3S)-3-{[9-ethyl-8-(2-methylpyrimidin-5-yl)-9H-purin-6-yl]amino}pyrrolidin-1-yl]carbonyl}-2-methylalaninate] | 1.9 | >10 |
| CCn1c(-c2cnc(C)nc2)nc2c(N[C@H]3CCN(C(=O)OCCF)C3)ncnc21 [Compound 13-3, 2-fluoroethyl (3S)-3-{[9-ethyl-8-(2-methylpyrimidin-5-yl)-9H-purin-6-yl]amino}pyrrolidine-1-carboxylate] | 8.7 | >10 |
| CCn1c(-c2cnc(C)nc2)nc2c(N[C@H]3CCN(c4ncccc4C)C3)ncnc21 [Compound 4-10, 9-ethyl-N-[(3S)-1-(3-methylpyridin-2-yl)pyrrolidin-3-yl]-8-(2-methylpyrimidin-5-yl)-9H-purin-6-amine] | 13 | >10 |
| CCn1ncc(-c2nc3c(NC4CN(C(=O)OC(C)(C)C)C4)ncnc3n2C)c1C [Compound 1-10, tert-butyl 3-((8-(1-ethyl-5-methyl-1H-pyrazol-4-yl)-9-methyl-9H-purin-6-yl)amino)azetidine-1-carboxylate] | 15 | >10 |
| CCn1c(-c2cncc(-c3ccccc3)c2)nc2c(N[C@H]3CCN(C(=O)C4CC4)C3)ncnc21 [Compound 3-37, N-[(3S)-1-(cyclopropylcarbonyl)pyrrolidin-3-yl]-9-ethyl-8-(5-phenylpyridin-3-yl)-9H-purin-6-amine] | 5.4 | >10 |
| CCC(=O)N1CC[C@H](Nc2ncnc3c2nc(-c2cnc(OC)c(C#N)c2)n3C)C1 [Compound 3-33, 2-methoxy-5-(9-methyl-6-{[(3S)-1-propanoylpyrrolidin-3-yl]amino}-9H-purin-8-yl)pyridine-3-carbonitrile] | 2.3 | >10 |
| CCn1c(C(=O)N[C@H]2CC[C@H](O)CC2)nc2c(N[C@H]3CCN(C(=O)C4CC4)C3)ncnc21 [Compound 6-7, 6-{[(3S)-1-(cyclopropylcarbonyl)pyrrolidin-3-yl]amino}-9-ethyl-N-(trans-4-hydroxycyclohexyl)-9H-purine-8-carboxamide] | 19 | >10 |
| CCn1c(-c2cnc(C)nc2)nc2c(N(C)[C@H]3CCN(C(=O)[C@H]4CC[C@@H](O)CC4)C3)ncnc21 [Compound 2-100, cis-4-{[(3S)-3-{[9-ethyl-8-(2-methylpyrimidin-5-yl)-9H-purin-6-yl](methyl)amino}pyrrolidin-1-yl]carbonyl}cyclohexanol] | 6.3 | >10 |
| CCn1c(-c2cnc(C)nc2)nc2c(N[C@H]3CC[C@@H](C(=O)N(C)C)C3)ncnc21 [Compound 5-4, (1R,3S)-3-{[9-ethyl-8-(2-methylpyrimidin-5-yl)-9H-purin-6-yl]amino}-N,N-dimethylcyclopentanecarbox-amide] | 5.3 | >10 |
| CCn1c(-c2cnc(C)nc2)nc2c(N[C@H]3CCN(C(=O)c4cncn4C)C3)ncnc21 [Compound 2-69, [(3S)-3-{[9-ethyl-8-(2-methylpyrimidin-5-yl)-9H-purin-6-yl]amino}pyrrolidin-1-yl](1-methyl-1H-imidazol-5-yl)methanone] | 3.8 | >10 |

Next, values leading:

| IC50 (PI3K-delta) [nM] | Selectivity versus PI3Kalpha (PI3K-alpha) | Structure (SMILES) |
| --- | --- | --- |
| 710 | >10 | CCn1c(C(F)F)nc2c(N[C@H]3CCN(C(=O)C4CC45CCCC5)C3)ncnc21 (single isomer, unassigned) [Compound 7-20, (S or R)-8-(difluoromethyl)-9-ethyl-N-[(3S)-1-(spiro[2.4]hept-1-ylcarbonyl)pyrrolidin-3-yl]-9H-purin-6-amine] |
| 14 | >10 | CCC(=O)N1CC[C@H](Nc2ncnc3c2nc(-c2ccc4[nH]ccc4c2)n3C)C1 [Compound 3-8, (S)-1-(3-((8-(1H-indol-5-yl)-9-methyl-9H-purin-6-yl)amino)pyrrolidin-1-yl)propan-1-one] |
| 4.3 | >10 | CCC(=O)N1CC[C@H](Nc2ncnc3c2nc(-c2cnc(C)nc2)n3C)C1 [Compound 3-15, 9-methyl-8-(2-methylpyrimidin-5-yl)-N-[(3S)-1-propanoylpyrrolidin-3-yl]-9H-purin-6-amine] |
| 41 | >10 | CCn1c(-c2cnc(C)nc2)nc2c(NC3CN(C(C)C4CC4)CC34CC4)ncnc21 (stereo not drawn) [Compound 10-2, N(S AND R)-[5-(1-(S AND R)-cyclopropylethyl)-5-azaspiro[2.4]hept-7-yl]-9-ethyl-8-(2-methylpyrimidin-5-yl)-9H-purin-6-amine] |
| 10 | >10 | C=C(C)CN1CC(Nc2ncnc3c2nc(-c2cnn(CC)c2C)n3C)CC1=O (racemic) [Compound 14-2, 4(S and R)-{[8-(1-ethyl-5-methyl-1H-pyrazol-4-yl)-9-methyl-9H-purin-6-yl]amino}-1-(2-methylprop-2-en-1-yl)pyrrolidin-2-one] |
| 7.7 | >10 | CCn1c(-c2cnc(C)nc2)nc2c(N[C@H]3C[C@H](C(N)=O)N(c4ccccn4)C3)ncnc21 [Compound 15-11, (4S)-4-{[9-ethyl-8-(2-methylpyrimidin-5-yl)-9H-purin-6-yl]amino}-1-pyridin-2-yl-D-prolinamide] |
| < 1 | >10 | CCn1c(-c2cnc(C)nc2)nc2c(NC3CN(C(=O)C4CC45CCCCC5)CC3C)ncnc21 (single isomer, unassigned) [Compound 2-88, 9-ethyl-8-(2-methylpyrimidin-5-yl)-N-[(3S,4R or 3R,4S)-4-methyl-1-((S and R)-spiro[2.5]oct-1-ylcarbonyl)pyrrolidin-3-yl]-9H-purin-6-amine] |
| 11 | >10 | CCn1c(C(F)F)nc2c(N[C@H]3CCN(C(=O)[C@H]4C[C@@H](OC)C4)C3)ncnc21 [Compound 7-18, 8-(difluoromethyl)-9-ethyl-N-{(3S)-1-[(cis-3-methoxycyclobutyl)carbonyl]pyrrolidin-3-yl}-9H-purin-6-amine] |
| 4.3 | >10 | CCn1c(-c2cnc(C)nc2)nc2c(N[C@H]3CCN(C(=O)[C@H]4CCOC4)C3)ncnc21 [Compound 2-41, 9-ethyl-8-(2-methylpyrimidin-5-yl)-N-{(3S)-1-[(3S)-tetrahydrofuran-3-ylcarbonyl]pyrrolidin-3-yl}-9H-purin-6-amine] |
